Test results from patent US11230544B1, “Substituted 1,3,4-thiadiazoles as GLS1 inhibitors” (MEDSHINE DISCOVERY INC., priority 2018, dated 2022).
Structures can show the parent of a compound that is named as a salt.

What was measured:
[1] = molecular target: T1, GLS1 (Homo sapiens, UniProt O94925); experiment: Activity test of compounds in a GLS1 coupling reaction system; format: biochemical; settings: enzyme GLS1 2 nM, 4.5 mM L-glutamine, 1 hour preincubation at 23° C.
T1 sequence (O94925 73-669 limits assumed): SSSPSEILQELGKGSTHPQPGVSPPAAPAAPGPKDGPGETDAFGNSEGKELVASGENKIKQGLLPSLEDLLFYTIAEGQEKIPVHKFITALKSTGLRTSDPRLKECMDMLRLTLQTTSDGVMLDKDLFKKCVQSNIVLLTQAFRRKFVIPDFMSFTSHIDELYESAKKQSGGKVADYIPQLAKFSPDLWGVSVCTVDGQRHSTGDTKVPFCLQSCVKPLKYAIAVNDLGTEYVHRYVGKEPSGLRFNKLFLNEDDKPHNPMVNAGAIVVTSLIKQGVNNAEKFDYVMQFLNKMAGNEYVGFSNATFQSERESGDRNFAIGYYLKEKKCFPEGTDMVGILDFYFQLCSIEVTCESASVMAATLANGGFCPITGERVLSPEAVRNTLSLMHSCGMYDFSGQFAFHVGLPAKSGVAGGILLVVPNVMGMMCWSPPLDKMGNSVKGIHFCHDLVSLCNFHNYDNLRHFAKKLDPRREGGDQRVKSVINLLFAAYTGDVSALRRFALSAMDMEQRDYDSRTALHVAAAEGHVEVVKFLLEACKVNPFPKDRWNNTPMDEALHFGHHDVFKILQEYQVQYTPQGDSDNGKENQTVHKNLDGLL
Description: Experimental Example 1: Activity Test of Compounds in a GLS1 Coupling Reaction System
The final concentration of each component in the final experimental buffer was 50 mM Tris-HCl pH 8.0, 0.25 mM EDTA, 150 mM K2HPO4, 0.1 mg/mL BSA, 1 mM DTT, and 0.01% o Triton X-100.
the 1× assay buffer was used to prepare “solution A” in the experiment (solution A contained L-glutamine, NAD+ and GLDH), and the final concentration of each component in the final experimental reaction system was 4.5 mM L-glutamine, 2 mM NAD+, and 4 U/mL GLDH; the 1× assay buffer was used to prepare “solution B” in the experiment—2× enzyme solution (solution B contained enzyme GLS1), and the final concentration of GLS1 in the final experimental reaction system was 2 nM.
The experiment plate was the plate prepared by Labcyte's ECHO that contained the gradient concentration of the compound and the corresponding DMSO solution before the experiment:
The experiment plate was taken out, and 20 μL of solution B (an enzyme GLS1 solution) was add to the 2nd to 23rd columns of the experiment plate, and then 20 μL of assay buffer was added to the 1st and 24th columns of the experiment plate, wherein the 1st and 24th columns were used as control groups of the experimental system; the plate was centrifuged at 1000 rpm for 30 seconds; the plate was sealed and incubated at 23° C. for 1 hour; I after 1 hour incubation, 20 μL of solution A was added to columns 1 to 24 of the experiment plate (i.e., addition of samples to the whole plate); the plate was centrifuged at 1000 […] for 30 seconds; the experiment plate was placed on SpectraMax 340PC, and read continuously for 20 minutes in the dynamic mode (the reading interval was set to 1 minute).

[2] = Pharmacokinetic evaluation of compounds in mice; format: in vivo; settings: mouse, plasma, female C57BL/6 mice; for bioavailability: oral, gavage vs intravenous; for half-life: tail intravenous injection and gavage, read-out: T1/2 (half-life) (converted); for half-life / AUC(0-inf) / Cmax: route not given; for Cmax: read-out: Cmax (peak concentration)
Description: Experimental Example 2: Pharmacokinetic Evaluation of Compounds
Objective: To test the in vivo pharmacokinetics of the compounds in mice
C57BL/6 mice (female, 7-9 weeks old, Shanghai SLAC)
Experiment operations: The clear solution obtained by dissolving the test compound was administered to female C57BL/6 mice (overnight fasting, 7-9 weeks old) via tail intravenous injection and gavage, respectively. After administration of the test compound or the control compound, blood was collected from the mandibular vein of the intravenous injection group at 0.0833, 0.25, 0.5, 1, 2, 4, 6, 8 and 24 hours, and of the gavage group at 0.0833, 0.25, 0.5, 1, 2, 4, 6, 8 and 24 hours, respectively, and centrifuged to obtain plasma. The LC-MS/MS method was used to determine the blood drug concentration, and the WinNonlin™ Version 6.3 pharmacokinetic software was used to calculate the relevant pharmacokinetic parameters by the non-compartmental model linear logarithmic trapezoidal method.

[3] = test system: human myeloma RPMI-8226 cell; experiment: In vivo pharmacodynamic study, CB-17 SCID nude mouse subcutaneous xenograft model of human myeloma RPMI-8226 cell; parameters: species or system mouse xenograft of human cells; settings: for Tumor volume (mm^3) (Day 14): Mean ± SEM, PO, Poma 1 mg/kg QD, CB-839 or compound 2 100 mg/kg (D1-D10) 150 mg/kg (D11-D14) BID
Description: Experimental Example 3 In Vivo Pharmacodynamic Study of a CB-17 SCID Nude Mouse Subcutaneous Xenograft Model of Human Myeloma RPMI-8226 Cell
Objective: Pomalidomide is used to treat multiple myeloma, and this experiment is used to study and evaluate the in vivo efficacy of the test compound combined with pomalidomide in the CB-17 SCID nude mouse subcutaneous xenograft model of human myeloma RPMI-8226 cell.
Experiment animals: female CB-17 SCID nude mice, 6 to 8 weeks old, with the body weigh of 18 to 22 grams; Supplier: Shanghai Lingchang Biological Technology Co., Ltd.
Human myeloma RPMI 8226 cells were cultured in a monolayer in vitro. The culture conditions were: RPMI 1640 medium (brand: gibco—22400089, batch: 1894220) supplemented with 10% fetal bovine serum, 100 U/mL penicillin and 100 μg/mL streptomycin, at 37° C. and 5% CO2. Conventional digestion treatment with pancreatin-EDTA for passage was carried out twice a week. When the cell confluence reached 80% to 90%, the cells were harvested, counted and inoculated.
0.2 mL (6×10^6 cells) of RPMI 8226 cells (supplemented with matrigel in a volume ratio of 1:1) were subcutaneously inoculated on the right back of each mouse. The grouping and administration were started when the average tumor volume reached 374 mm^3.
The test compound (compound 2) was formulated into a clear solution of 10 mg/mL, and the solvent was a 10 mM citric acid buffer containing 0.2% Tween-80 and 25% hydroxypropyl-β-cyclodextrin, pH=4. CB-839 was formulated into a clear solution of 10 mg/mL, and the solvent was a 10 mM citric acid buffer containing 25% hydroxypropyl-β-cyclodextrin, pH=2.2. Pomalidomide (Poma) was formulated into a clear solution of 0.1 mg/mL, and the solvent was 20% PEG400+80% (20% hydroxypropyl-β-cyclodextrin).
The experimental index was to investigate whether the tumor growth was inhibited, delayed or cured. Tumor diameter was measured twice a week with a vernier caliper. The calculation formula of tumor volume was V=0.5a×b^2, wherein a and b represented the long and short diameters of the tumor, respectively.
The anti-tumor efficacy of the compound was evaluated by TGI (%) or relative tumor proliferation rate T/C (%). TGI (%) reflected the tumor growth inhibition rate. Calculation of TGI (%): TGI (%)=[1−(average tumor volume at the end of administration in a treatment group−average tumor volume at the beginning of administration in this treatment group)/(average tumor volume at the end of administration in the solvent control group-average tumor volume at the beginning of administration in the solvent control group)]×100%.
Relative tumor proliferation rate T/C (%): the calculation formula was as follows: T/C %=TRTV/CRTV×100% (TRTV: mean RTV of the treatment group; CRTV: mean RTV of the negative control group). The relative tumor volume (RTV) was calculated according to the results of the tumor measurement. The calculation formula was RTV=Vt/V0, where V0 was the tumor volume measured at beginning of the grouping and administration (i.e., d0), and Vt was the tumor volume at the time of a certain measurement. TRTV and CRTV were obtained from the data on the same day.
Statistical analysis included mean value and standard error (SEM) of the tumor volume of each group at each time point (see Table 4 for specific data). […] The comparison between two groups was analyzed by T-test, and the comparison between three or more groups was analyzed by one-way ANOVA.
Statistical analysis of synergy: method for calculating Q value (also known as King's formula method) was as follows: Q=TGIA+B/(TGIA+TGIB−TGIA×TGIB). TGIA, TGIB and TGIA+B were the tumor inhibition rates when drug A was used alone, drug B was used alone, and drug A and drug B were used in combination, respectively.
In the experiment, the effect of the test compound on the weight of the animal was investigated. […]

Row | SMILES | IC50 [1] | also measured
1 | COC(C(=O)Nc1nnc(NC2CC=C(c3cccnn3)CC2)s1)c1cc(OC(F)(F)F)ccc1F (single isomer, unassigned) [Compound 1] | 0.132 µM | –
2 | COC(C(=O)Nc1nnc(NC2CC=C(c3cccnn3)CC2)s1)c1cc(OC(F)(F)F)ccc1F (single isomer, unassigned) [Compound 2] | 0.0965 µM | bioavailability [2]: 34.8%; half-life [2]: 3.93 h; AUC(0-inf) [2]: 134 µM·h; Cmax [2]: 36.8 µM
3 | COC(C(=O)Nc1nnc(NC2CCC(c3cccnn3)CC2)s1)c1cc(OC(F)(F)F)ccc1F (single isomer, unassigned) [Compound 3] | 0.17 µM | –
4 | COC(C(=O)Nc1nnc(NC2CCC(c3cccnn3)CC2)s1)c1cc(OC(F)(F)F)ccc1F (single isomer, unassigned) [Compound 4] | 4.9 µM | –
5 | O=C(Cc1cccc(OC(F)(F)F)c1)Nc1ccc(CCCCc2nnc(NC(=O)Cc3ccccn3)s2)nn1 [CB-839, reference compound] | – | bioavailability [2]: 27.1%; half-life [2]: 4.69 h; AUC(0-inf) [2]: 27.7 µM·h; Cmax [2]: 18.1 µM
6 | CO[C@H](C(=O)Nc1nnc(NC2CCC(c3cc(C)cnn3)CC2)s1)c1cc(OC(F)(F)F)ccc1F (stereo partly shown) [Compound 5 (hydrochloride salt)] | 0.469 µM | –
7 | CO[C@H](C(=O)Nc1nnc(NC2CCC(c3cc(C(=O)O)cnn3)CC2)s1)c1cc(OC(F)(F)F)ccc1F (stereo partly shown) [Compound 6 (hydrochloride salt)] | 1.69 µM | –
8 | CO[C@H](C(=O)Nc1nnc(NC2CC=C(c3ccc(N)nn3)CC2)s1)c1cc(OC(F)(F)F)ccc1F (stereo partly shown) [Compound 7 (hydrochloride salt)] | 0.133 µM | –
9 | COc1cccc(C(OC)C(=O)Nc2nnc(N[C@H]3CC[C@@H](c4cccnn4)CC3)s2)c1 (stereo partly shown) [Compound 8 (trifluoroacetate salt)] | 0.577 µM | –
10 | COC(C(=O)Nc1nnc(N[C@H]2CC[C@@H](c3cccnn3)CC2)s1)c1cccc(OC(F)(F)F)c1 (stereo partly shown) [Compound 9 (hydrochloride salt)] | 0.502 µM | –
11 | CO[C@H](C(=O)Nc1nnc(N[C@H]2CC[C@@H](c3cccnn3)CC2)s1)c1ccccc1 [Compound 10 (hydrochloride salt)] | 1.59 µM | –
12 | COC(C(=O)Nc1nnc(N[C@H]2CC[C@@H](c3cccnn3)CC2)s1)c1cccc(OC(F)F)c1 (stereo partly shown) [Compound 11 (trifluoroacetate salt)] | 0.72 µM | –
13 | COc1cc(C(OC)C(=O)Nc2nnc(N[C@H]3CC[C@@H](c4cccnn4)CC3)s2)ccc1F (stereo partly shown) [Compound 12 (trifluoroacetate salt)] | 4.71 µM | –
14 | CO[C@H](C(=O)Nc1nnc(NC2CC=C(c3cc4cc[nH]c4nn3)CC2)s1)c1cc(OC(F)(F)F)ccc1F (stereo partly shown) [Compound 13 (trifluoroacetate salt)] | 0.18 µM | –
15 | CO[C@H](C(=O)Nc1nnc(NC2CCC(c3cc4cc[nH]c4nn3)CC2)s1)c1cc(OC(F)(F)F)ccc1F (stereo partly shown) [Compound 14] | 0.757 µM | –
16 | Nc1cccc2c1C(=O)N(C1CCC(=O)NC1=O)C2=O (stereo not shown) [Poma, Pomalidomide] | – | Tumor volume (mm^3) (Day 14) ([3]; Day 14 after administration): 1542 ± 259 mm^3; Tumor volume (mm^3) (Day 14) ([3]; Day 14 after administration, listed as pomalidomide): 1,542 mm^3; anti-tumor effect compared with the solvent control group ([3]; Day 14 after administration, result in words): no significant anti-tumor effect; T/C (%) ([3]; relative tumor proliferation rate, Day 14, vs solvent control group): 68.8%; RTV (Day 14) ([3]; relative tumor volume Vt/V0, Day 14, same dosing as tumor volume): 4.22 ± 0.50; TGI (%) ([3]; tumor growth inhibition rate, Day 14, vs solvent control group): 34.0%
